Measured values: patent US20240002441A1, “PEPTIDES AND USES THEREOF IN MODULATION OF AMYLOID-BETA PROTEIN DEGRADING PROTEASES” (priority 2020, published 2024)
Like-named read-outs stand apart in the source and are kept apart here.

Experiments:
NEP = target: T1, NEP (Homo sapiens, UniProt P08473); test: QFS assay of Aβ-degrading enzymes: NEP (Example 6); assay type: biochemical
T1 construct: purchased R & D systems 1182-ZNC-010
Protocol: (§1) Plate reader-based enzyme assays were performed using a quenched fluorescent substrate (QFS) in a 96-well format using a SpectraMAX M4 Microplate reader (Molecular Devices). The increase in fluorescence following addition of QFS (40 μM) was taken as evidence of enzyme activity. Fluorescence was monitored over 2 h at 37° C. using κEx=320 nm and λEm=405 nm. Assays were conducted in black 96-well plates. Specific enzyme activity was expressed as a rate of substrate cleavage calculated using a standard curve of 7-methoxy-coumarin-4-acetic acid.
(§2) In all plate reader-based enzyme assays using QFS, the reaction rate (μmol of substrate cleaved/min) was calculated using linear regression analysis (GraphPad Prism software version 8.01). The reaction rates calculated were used to generate the enzyme kinetic parameters Vmax and Km through non-linear regression analysis (GraphPad Prism software, version 8.01; Michaelis-Menten equation). Where indicated, enzyme activity in the presence of peptide was expressed as a % of the enzyme alone. Data were expressed as mean±SEM and statistical significance was determined using t-tests or one-way ANOVAs followed by Tukey's post-hoc test. P<0.05 was considered as statistically significant. In all assays conducted using 96-well plates, the reaction mixtures in each well were considered an independent experiment.
SEQ ID NO:2 was assessed in a QFS assay against enzymes NEP, ECE1, ECE2, ACE1, ACE2, IDE and MMP-2 using the method in Example 2 and the following procedure. NEP, ACE1, ECE2 (0.05 ng/μL), ACE2, IDE (0.10 ng/μL), and ECE1 (6.4 ng/μL) were incubated with SEQ ID NO:2 (0.9-26 μM) or scrambled control (9 μM) for 1 h at 37° C. Prior to use, MMP2 (0.50 ng/μL) was activated using p-aminophenylmercuric acetate to a final concentration of 100 μM for 1 h at 37° C. Following activation, MMP2 was incubated with SEQ ID NO:2 for 1 h at 37° C. before adding the appropriate QFS.

MMP-2 = target: T2, MMP-2 (Homo sapiens, UniProt P08253); test: QFS assay of Aβ-degrading enzymes: MMP-2 (Example 6); assay type: biochemical; details: MMP2 0.50 ng/μL activated with p-aminophenylmercuric acetate
T2 construct: purchased Sigma Aldrich SRP6270-10UG
T2 sequence (P08253 110-660): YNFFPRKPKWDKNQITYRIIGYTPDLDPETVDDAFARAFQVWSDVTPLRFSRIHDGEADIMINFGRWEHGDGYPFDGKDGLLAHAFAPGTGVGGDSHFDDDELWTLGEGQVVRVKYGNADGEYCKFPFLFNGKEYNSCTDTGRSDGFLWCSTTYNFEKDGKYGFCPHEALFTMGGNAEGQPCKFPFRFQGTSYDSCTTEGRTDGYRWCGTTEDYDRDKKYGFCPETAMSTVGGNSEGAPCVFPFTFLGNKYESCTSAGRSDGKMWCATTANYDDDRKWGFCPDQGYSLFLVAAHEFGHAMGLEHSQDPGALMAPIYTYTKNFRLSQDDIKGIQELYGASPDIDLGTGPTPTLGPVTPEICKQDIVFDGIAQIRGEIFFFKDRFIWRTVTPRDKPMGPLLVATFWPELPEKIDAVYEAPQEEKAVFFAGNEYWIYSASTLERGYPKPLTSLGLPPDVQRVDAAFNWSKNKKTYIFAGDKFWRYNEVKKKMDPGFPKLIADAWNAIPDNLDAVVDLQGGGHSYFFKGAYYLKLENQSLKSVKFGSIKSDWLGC
Protocol: as §1
as §2, with “In all assays conducted using 96-well plates, the reaction mixtures in each well were considered an independent experiment.” left out
SEQ ID NO:2 was assessed in a QFS assay against enzymes NEP, ECE1, ECE2, ACE1, ACE2, IDE and MMP-2 using the method in Example 2 and the following procedure. […]

[1] = test system: Ang II-induced expression of IL-6 and Collagen III in EA.hy926 cells; test: Ang II-induced expression of IL-6 and Collagen III in EA.hy926 cells, western blotting (Example 9); assay type: cell-based; details: 24 h
Protocol: EA.hy926 cells (passage 40) were seeded at a density of 1×10^6 cells/mL. After 24 hours, cells were incubated overnight in reduced serum media. Cells were then treated over 24 h as follows: • 1. Vehicle control • 2. Ang II (10 nM) • 3. […] Ang II (10 nM)+rhACE2 (0.05 ng/μL) • 5.
Following incubation, cells were lysed using lysis buffer (Thermo Fisher Scientific, Cat #89900) containing 1% protease inhibitor (Thermo Fisher Scientific, Cat #1861278). Cell lysate was centrifuged at 13,000 rpm for 10 min. Protein concentration in the supernatant was determined by NanoDrop (Thermo Fisher Scientific, Cat #ND-1000). Supernatants were stored at −30° C. until analysed.
Samples were diluted in SDS-PAGE reducing sample buffer (Bio-Rad Laboratories, Cat #1610747; California, USA) containing 1% β-mercaptoethanol (Bio-Rad Laboratories, Cat #221610710) to reach a final concentration of […]. Prior to loading, samples were heated at 95° C. for 5 min. Samples were loaded into the wells alongside the molecular weight marker (Life Technologies, Cat #LC5800; California, USA). Electrophoresis was conducted at 200 V for 40 min in 1× running buffer. Following protein separation by SDS-PAGE, proteins were blotted onto nitrocellulose membranes at 100 V for 1 h in 1× transfer buffer. The membranes were then blocked in 5% skim milk in 1× Tris-buffered saline (TBST) containing 0.05% Tween 20 (Thermo Fisher Scientific, Cat #28352) for 1 h at room temperature. The membranes were incubated with IL-6 (1:500; Thermo Fisher Scientific, Cat #700480) or collagen III (1:500; Invitrogen, Cat #PA5-27828) primary antibodies while rocking at 4° C. overnight. Membranes were then probed with secondary antibody conjugated with horseradish peroxidase (HRP) (1:6000) for 1 h at room temperature. The HRP-labelled proteins were detected using chemiluminescence SuperSignal™ ECL Western Blotting Substrate (Thermo Fisher Scientific, Cat #34577) at 1:1 ratio. Beta-actin was used as a loading control. Protein bands were analysed using ImageJ (version 1.51) and band density was normalised with the respective beta-actin.

SARS-CoV-2 = assay type: cell-based; details: post-treatment, Vero cells; for IL-6 expression compared to PBS: normalised to GAPDH

T1 sequence (P08473 whole entry): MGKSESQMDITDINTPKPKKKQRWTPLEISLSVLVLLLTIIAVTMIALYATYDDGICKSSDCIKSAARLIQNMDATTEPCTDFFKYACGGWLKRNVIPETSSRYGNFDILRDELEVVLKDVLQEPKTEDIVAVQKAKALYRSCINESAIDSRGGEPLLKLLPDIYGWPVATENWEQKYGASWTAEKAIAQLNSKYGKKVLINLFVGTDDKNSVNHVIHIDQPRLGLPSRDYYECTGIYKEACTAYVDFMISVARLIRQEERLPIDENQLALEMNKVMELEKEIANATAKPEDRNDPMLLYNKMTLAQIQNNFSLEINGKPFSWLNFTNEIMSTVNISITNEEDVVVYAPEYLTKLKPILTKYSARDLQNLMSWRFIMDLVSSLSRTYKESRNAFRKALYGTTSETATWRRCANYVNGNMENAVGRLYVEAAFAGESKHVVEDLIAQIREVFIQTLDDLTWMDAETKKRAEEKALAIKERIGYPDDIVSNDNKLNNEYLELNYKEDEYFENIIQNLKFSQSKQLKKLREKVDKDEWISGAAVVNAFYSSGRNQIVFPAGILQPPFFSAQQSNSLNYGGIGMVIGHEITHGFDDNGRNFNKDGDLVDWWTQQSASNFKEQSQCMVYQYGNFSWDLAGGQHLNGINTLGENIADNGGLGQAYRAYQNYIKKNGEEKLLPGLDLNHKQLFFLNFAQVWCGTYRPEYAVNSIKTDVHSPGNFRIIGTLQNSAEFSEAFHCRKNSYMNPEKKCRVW

Substance: H-SLFELGKMIL-NH2 [SEQ ID NO:2, H2N-SLFELGKMIL-NH2]
- submaximal concentration against NEP (NEP): 9 µM
- NEP activity compared with respective enzyme alone (NEP; peptide 2 μM (FIG. 2c)): significantly increased
- activity of NEP as % of enzyme alone controls (NEP; peptide 9 μM): 380%
- NEP activity, concentration dependence (NEP; peptide 0.9-26 μM): increased the activity
- activity of MMP-2 in the presence of peptide (MMP-2): 0.7±0.2 μmol of substrate cleaved
- effect on the activity of MMP-2 (MMP-2): did not affect
- Collagen III expression compared to cells treated with Ang II alone ([1]; Ang II 10 nM plus 2A 26 μM and/or ACE2 0.05 ng/μL): significantly lower
- IL-6 expression compared to cells treated with Ang II alone ([1]; Ang II 10 nM plus peptide 26 μM and/or rhACE2 0.05 ng/μL): significantly lower
- Collagen III expression ([1]; EA.hy926 cells, Ang II 10 nM alone, or Ang II and 2A (26 μM)): 28±6%
- viral RNA compared to PBS (SARS-CoV-2; 200 ng/μL): significantly reduced
- IL-6 expression compared to PBS (SARS-CoV-2; 200 ng/μL): significantly reduced
- viral RNA compared to PBS (SARS-CoV-2; 400 ng/μL): significantly reduced
- viral titre compared to PBS (SARS-CoV-2; 400 ng/μL): significantly reduced
- IL-6 expression compared to PBS (SARS-CoV-2; 400 ng/μL): significantly reduced
